Take `COC[C@@H](OC)[C@@H](OC)[C@H](OC)[C@H](CN(C)C(=O)c1ccc2n1Cc1ccccc1N(C(=O)c1ccc(C3=CCCCC3)c(C)c1)C2)OC`: the melting point is 68 to 83 °C. As to `CON=C1CC(=NOC)c2ccccc2-c2ccccc21`, the melting point was 130 °C. Next, `O=C(c1ccc(Cl)cc1)c1c(N2C(=O)c3ccccc3C2=O)sc(Br)c1CBr`: 173 to 175 °C; `CCOCN1C(C)=C(C(=O)O)[C@H](c2cccc([N+](=O)[O-])c2)C(C(=O)OCOC(=O)C(C)(C)C)=C1C`: 85 to 86 °C. In the case of `Cc1ccc2sc(-c3ccccc3)c(N(C)C)c2c1`, the melting point was 89 to 92 °C.

For `Cn1c2c(ccc1=O)C(NCCc1ccc3ccccc3c1)CCC2` (centres undefined), the melting point lay within 113 to 115 °C.

`Cc1ccc(OC(=O)N2CC3CC(CN(CC(O)COc4ccc(C#N)cc4)C3)C2)cc1` (centres undefined) displayed a melting point of 125 to 126 °C. For `C[C@H](NC(=O)[C@@H](C)NC(=O)[C@@H](N)CC(=O)O)C1CCCC1` the value was 204 to 205 °C; for `Cc1cc2c(cc1O)C(C)(C)CC1(CC(C)(C)c3cc(OCCCn4nc(CO)cc4C)c(C)cc3O1)O2` (centres undefined), 217 to 219 °C.

`Clc1cc(Cl)c(OCOCOc2c(Cl)cc(Cl)cc2Cl)c(Cl)c1` returned a melting point of 179 to 181 °C. For `Cc1nc(-n2ccc(COc3ccccc3)cc2=O)sc1C(=O)NCc1ccccc1` the value was 175 to 177 °C; for `NS(=O)c1ncnc2c1ncn2C1OC(CO)C(O)C1O` (centres undefined), over 120 °C; for `Cc1ccc(-c2ccc3c(c2)C=C(C(=O)Nc2ccc(CN(CCO)CCO)cc2)CC3)cc1`, 150 to 151 °C. For `O=C(O)c1cc(OCc2ccccc2)c(C(=O)c2c(OCc3ccccc3)cccc2C(=O)OCc2ccccc2)c(OCc2ccccc2)c1`, the melting point was in the range of 151 to 156 °C.

Regarding `CCCCCCCCCCCCCCCCN(C(=O)C(F)(F)F)c1ccc(C(=O)O)cc1`, the melting point lay within 50 to 53 °C.

`O=C1CCCC(=O)N1c1ccncc1` came in with a melting point of 153 to 155 °C.

With `CNC(=NCCSCc1cnc(C)[nH]1)NC#N`, the melting point lay within 141 to 142 °C. For the compound `CN1C(=O)CCc2cccc(N3CCN(CCCCOc4ccc5c(n4)NC(=O)NCC5)CC3)c21`, the melting point was 80 to 82 °C. `C#CCN(c1c(Br)cc(Br)cc1Br)[N+](=O)[O-]` showed a melting point of 58 to 58.5 °C. For `CC[Si](CC)(CC)CSc1cc(C(C)(C)C)c(O)c(C(C)(C)C)c1` the value was 58 to 60 °C; for `CCOc1ccccc1C(=O)Nc1ccc(C(=O)N2CCC(F)(F)/C(=C\C(=O)N3CCOCC3)c3ccccc32)cc1`, 144 to 147 °C. As for `Cn1cc(S(=O)(=O)Cl)c(=O)c2cc(F)ccc21`, the melting point is over 300 °C. `CCOc1ncnc(OCC)c1NC(=S)NC(=O)c1ccccc1` came in with a melting point of 162 °C.

Turning to `Cc1nc(-c2ccccc2)cc(-c2cccc(C#N)c2)c1NC(=O)CCN1CCOCC1`, the melting point lay within 150 to 152 °C.

On to `O=CN(c1cccc(C(F)(F)F)c1)c1cccc(C(F)(F)F)c1`, for which the melting point fell in the range of 63 to 65 °C. For `COCc1c[nH]c2c([N+](=O)[O-])ccc(C)c2c1=O` the value was 210 to 213 °C. Next, `Cc1cc(-n2ccnc2)c2cccc(OCc3c(Cl)ccc(S(=O)(=O)N4CCC[C@H]4CO)c3Cl)c2n1`: 76 °C. In turn, `Cc1ccc(-c2cc[nH]c2CC[N+](=O)[O-])cc1` displayed a melting point of 81 to 82 °C. For `Cc1ccc(CC2(O)CCN(CCOC(=O)c3ccc(OCc4ccccc4)cc3)CC2)cc1` the value was 102 °C. Next, `Nc1nc2ccc(NC(=O)[C@@H]3CCCN3C(=O)[C@@H](Cc3ccccc3)NS(=O)(=O)Cc3ccccc3)cc2s1`: 130 to 133 °C; `Cc1cc(C(C)C(=O)O)n(C)c1C(=O)c1ccc(Cl)cc1` (centres undefined): 153 to 154 °C.

In turn, `Cn1cc(C2=C(c3c4n(c5ccccc35)CCC(C#N)C4)C(=O)NC2=O)c2ccccc21` (centres undefined) came in with a melting point of 312 to 313 °C. The compound `N#Cc1cccc2c1C(O)CC2` (centres undefined) displayed a melting point of 73 °C. For `CCCOc1ccccc1-c1[nH]c(=O)c(C(N)=O)cc1C` the value was 238 to 240 °C.

`COCc1cc(OC)c(C=O)c(OC)c1` yielded a melting point of 72 to 76 °C. Regarding `Cc1oc(-c2ccccc2)nc1COc1cccc(C#CC(C)n2oc(=O)[nH]c2=O)c1` (centres undefined), the melting point lay within 55 to 57 °C.

`CCOC(=O)C(CC=Cc1ccc(Cl)cc1)S(=O)(=O)c1ccc(C)cc1` (centres undefined) gave a melting point of 87 to 88 °C. For `O=C(OCc1ccccc1)[C@H](Cc1ccccc1)NC(=O)N1CCOCC1` the value was 85 to 87 °C; for `CC(C)Oc1cc(NC(=O)C2=C(C(=O)N(C)C)CCCC2)ccc1Br`, 137 to 138 °C; for `N#Cc1cc(-c2ccco2)nc(N)n1`, 193 to 194 °C. In turn, `Cc1cc(C(C)(CC(=O)c2ccccc2)c2ccccc2)ccc1O` (centres undefined) came in with a melting point of 137 °C. Compound `O=C(Nc1cc(-c2nc(Cc3ccccc3)c[nH]2)ccn1)c1ccccc1` displayed a melting point of 110 to 112 °C. For `CCCc1nc(CO)c(C)[nH]1` the value was 134 to 136 °C; for `CCCCC/C(=C\C=C\C(=O)O)c1cccc(F)c1`, 84 to 85.5 °C; for `CCCc1cc(C(=O)O)ccc1OCCCCCCc1cccc(O)c1O`, 123 to 124 °C. `CCCCCCCCCCOCC(O)CO` (centres undefined): the melting point lay in the range of 38.5 to 39 °C. In turn, `CCSc1ccnc2sc(C(N)=O)c(N)c12` returned a melting point of 230 to 235 °C. Consider `CN1C=CC(c2ccccc2)=C(O)C1`, for which the melting point was 154 to 157 °C. In the case of `Cc1ccc(Cl)cc1NC(=S)Nc1cc[nH]n1`, the melting point was 221 to 222 °C.

Compound `O=C(Nc1ccc2c(c1)S(=O)(=O)NC1CCCN21)c1ccccc1` (centres undefined) yielded a melting point of 293 °C. As for `CCOC(=O)c1cnc2nn(C)cc2c1OCCC(C)C`, the melting point was 100 to 102 °C. `COc1ccc(CC(C(=O)O)S(C)(=O)=O)cc1C(=O)NCc1ccc(C(F)(F)F)cc1` (centres undefined) showed a melting point of 158 to 159 °C. For `Oc1c(Br)cc(-c2c3ccccc3c(C(F)(F)F)c3sc4ccccc4c23)cc1Br` the value was 223 to 225 °C; for `CCNC(=O)n1nc(Oc2ncc(C(F)(F)F)cc2Cl)cc1CC`, 85 to 86 °C; for `CCCCCC(=O)Nc1ccc2nnc(C(=O)OCC)c(O)c2c1`, 265 to 266 °C. For `N#CC1=C(C2CCC2)Nc2n[nH]cc2C1c1ccccc1Cl` (centres undefined) the value was 188 °C. For `COC1(NC(=O)NS(=O)(=O)c2cccc(N=C=O)c2)C=C(C)N=CN1` (centres undefined) the value was 147 to 157 °C; for `Cc1cc(C)cc(Oc2cccc([N+](=O)[O-])n2)c1`, 94 to 95 °C. Take `COc1ccc(C2(C(=O)O)CCC(=O)CC2)cc1`: the melting point lay in the range of 154 to 156 °C. For `COc1ccc2c(c1)S(=O)(=O)N(C(C)C)C2=O`, the melting point is 188 °C.

Take `CN1CCC(c2cc3cc(C4(O)CCCCC4)ccc3o2)CC1`: the melting point lay in the range of 155 to 157 °C. For `Cc1cccc2sc(Sc3ccc4c(c3)CC[C@H]3N(C)C(=O)CC[C@]43C)nc12` the value was 134 to 142 °C; for `CCOC(=O)c1ccc(OCCSc2ccccc2)cc1`, 50 to 51 °C; for `Cc1ccc(Sc2nc(Cl)cc(OCCOc3ccccc3)n2)cc1`, 128 to 132 °C.

Broadly, the melting point is the temperature of the solid-liquid transition.

These data come from a melting point compilation (Tetko et al.; mined from patent text by program, amines drawn as free bases though some values may be those of a salt).
